Reference: article PMC12646587, “Advanced cardiotoxicity profiling using field potential imaging with UHD-CMOS-MEA in human iPSC-derived cardiomyocytes” (Toxicological Sciences, 2025)
Like-named read-outs stand apart in the source and are kept apart here. Each block holds one compound with its values, some of them ahead of it.

What was measured:
[1] = test system: human iPSC-derived cardiomyocytes; assay: Field potential imaging (FPI) with UHD-CMOS-MEA, acute drug treatment; type: cell-based; conditions: for significant changes in any of the measured parameters (17 beat parameters): 10, 100 μM; for BR (beat rate): arrows = direction, – = none; for FPI (concentration at which changes were detected): changed parameters in brackets in each cell
Protocol: Cryopreserved iCell Cardiomyocytes (FUJIFILM Cellular Dynamics, Inc.) were handled according to the supplier’s instructions. Cells were thawed in a 37 °C water bath for approximately 3 min and resuspended in iCell Thawing Medium to prepare a cell suspension at a final concentration of 1 × 10^7 cells/ml. A total of 10 µl of the cell suspension (100,000 cells per chip) was seeded directly onto the fibronectin-coated electrode area of each chip. Chips were incubated at 37 °C for 1 h to allow cell attachment, after which 1 ml of maintenance medium was gently added. […] Thereafter, medium exchanges were performed twice weekly by replacing half the medium volume.
Compounds were dissolved in culture medium containing 0.1% DMSO and administered cumulatively at increasing concentrations. Drug solutions were applied directly to the culture wells, and measurements were initiated 30 min after administration. […] All recordings were performed under spontaneous beating conditions, with no external pacing applied.
Recordings were performed at a sampling rate of 2 kHz, with a 2-min recording duration per condition. Data acquisition was controlled via proprietary software (Sony Semiconductor Solutions), and all raw signals were stored for offline analysis. All experiments were conducted in a humidified environment at 37 °C with 5% CO2, ensuring physiological conditions during both drug exposure and recording.
Spikes from hiPSC-derived cardiomyocytes were initially detected at each electrode using a voltage threshold of ±100 µV via BinViewer software (SCREEN Holdings Co., Ltd, Japan). The resulting spike data were then processed using a custom MATLAB (MathWorks, Natick, MA) script to perform beat detection. Firing count histograms were generated using a bin size of 0.5 ms, and peak detection within these histograms identified the timing and propagation duration of beats across the electrode array. For each electrode, the maximum spike amplitude and its corresponding peak timing were calculated to generate heat maps of field potential amplitude and activation timing. […]

[2] = test system: human iPSC-derived cardiomyocytes; assay: PCA of beat parameters: cardiotoxicity risk and mechanism classification; type: cell-based; conditions: for position in PCA space: across all tested concentrations
Protocol: Each parameter set was evaluated for its ability to separate cardiotoxic and non-cardiotoxic compounds while maintaining minimal variance among negative controls. […] To assess cardiotoxicity, PCA scores of test compounds were plotted in the PC space, and their positions were compared with the SD-defined zones of the negative control group. Risk levels were classified as follows: Low risk (within 1 SD), medium risk (between 1 and 2 SD), and high risk (beyond 2 SD). Dose-dependent cardiotoxicity potential was estimated based on displacement from the negative control cluster.
To establish a risk classification framework, the standard deviation (SD) range of negative control compounds in PCA space was used to define 3 zones: Within the SD range (low risk), between 1 and 2 SD (medium risk), and beyond 2 SD (high risk) (Fig. 6B). Risk levels derived from PCA distribution were compared with IC50 and Cmax values reported for each compound and associated ion channels (Table 5).

[3] = test system: hiPSC-CMs; assay: Conventional MEA recording (16-electrode Axion Maestro), acute exposure; type: cell-based, human
Protocol: To enable comparison with the UHD-CMOS-MEA recordings, conventional extracellular field potential recordings were performed using 16-electrode MEA plates on a commercially available MEA system (Axion Maestro, Axion Biosystems), in accordance with the general principles of the CiPA initiative. hiPSC-CMs were cultured and maintained on the MEA plates under spontaneous beating conditions at 37 °C. Recordings were conducted after 10 to 14 DIV, and data acquisition and beat detection were performed using the built-in algorithms of the AxIS software (Axion Biosystems), without the use of external pacing. […] Each compound was applied under acute exposure conditions, and field potential recordings were obtained for 30 min following drug administration.
To evaluate the measurement capabilities of a conventional MEA system, the same set of 7 compounds was tested using the 16-electrode Axion Maestro platform.

[4] = cited from earlier work
[5] = test system: NaV; conditions: cited from earlier work
[6] = test system: CaV; conditions: cited from earlier work
[7] = test system: cardiomyocytes; conditions: cited from earlier work
[8] = test system: cardiomyocytes; conditions: BR20 (20% reduction in beat rate), cited from earlier work
[9] = test system: cardiomyocytes; conditions: CTD90 ↑; ref Lu et al. 2019; cited from earlier work
[10] = test system: hERG; conditions: read-out: IC50 hERG; ref Clements et al. 2015; cited from earlier work
[11] = acute, statistically significant change vs before

SMILES: CC(C)COCC(CN(Cc1ccccc1)c1ccccc1)N1CCCC1 (stereo not drawn) [Bepridil]
Amp. CV [1, 11]: decreased and ↓
IBI (interbeat interval) [1, 11]: ↓
IBI CV [1, 11]: decreased and ↓
Veloc. CV [1, 11]: decreased and ↓
Veloc. STV [1, 11]: ↓
IBI ([3]; acute): statistically significant changes
IBI variability, amplitude variability, conduction velocity variability and STV of conduction ([3]; acute): not detected
magnitude of change in beat frequency and IBI ([3]; acute): less than 5%
Cmax Free ([4]; ref Crumb et al. 2016): 0.032 ([Crumb et al. 2016]) μM
IC50 ([5]; ref Clements et al. 2015): 2.3 µM
IC50 ([6]; ref Clements et al. 2015): 1 µM
MEA assay ([7]; FPD, ref Kaneko et al. 2014): 10 ([Kaneko et al. 2014]) (FPD) µM
Impedance assay ([8]; ref Guo et al. 2013): 0.03 ([Guo et al. 2013]) (BR20) µM
HCA assay [9]: 1.0 ([Lu et al. 2019]) (CTD90 ↑) µM

SMILES: Cc1cccc(C)c1OCC(C)N (stereo not drawn) [Mexiletine]
beat-wise variability in conduction speed ([1]; 10 µM, post-treatment): increased variability
average conduction velocity ([1]; 10 µM, before 0.147 ± 0.004, n = 6 wells): 0.109 ± 0.009 m/s
proportion of the area with conduction velocity exceeding 0.3 m/s ([1]; 10 µM, before 4.9%): 0.6%
beating frequency ([1]; 10 µM, before 64.5 bpm): 31.5 bpm
number of active electrodes ([1]; 10 µM, before 115,437.9 ± 582.1): 93,595.6 ± 11,323.1
Amp. (amplitude) [1, 11]: decreased and ↓
Amp. CV [1, 11]: increased and ↑
Area (propagation area) [1, 11]: decreased and ↓
IBI (interbeat interval) [1, 11]: increase and ↑
Veloc. (conduction velocity) [1, 11]: decreased and ↓
BR (beat rate) [1, 11]: decreased and ↓
FPI (concentration at which changes were detected) [1]: 10 (BR, IBI, Ampl. Area, Veloc.) μM
spontaneous beating ([3]; 10 μM): ceased entirely
IBI ([3]; acute): reached statistical significance
beat frequency ([3]; acute): reached statistical significance
conduction velocity ([3]; acute): not captured
field potential (spike) amplitude ([3]; acute): increase
magnitude of change in beat frequency and IBI ([3]; acute): 2.2%
propagation area ([3]; acute): not captured
FPI PCA (concentration at which changes were detected) [2]: 1 µM
Cmax Free ([4]; ref Crumb et al. 2016): 2.5 ([Crumb et al. 2016]) μM
IC50 ([5]; ref Clements et al. 2015): 38 µM
IC50 ([6]; ref Clements et al. 2015): 125 µM
MEA assay ([7]; Spike amp., ref Clements and Thomas 2014): 3.0 ([Clements and Thomas 2014]) (Spike amp.) µM
Impedance assay ([8]; ref Guo et al. 2013): 3.0 ([Guo et al. 2013]) (BR20) µM
IC50 [10]: 62.2 µM

SMILES: C=C[C@H]1C[N@@]2CC[C@H]1C[C@@H]2[C@@H](O)c1ccnc2ccc(OC)cc12 [Quinidine]
Amp. (amplitude) [1, 11]: decreased and ↓
Area (propagation area) [1, 11]: decreased and ↓
Area CV [1, 11]: increasing and ↑
IBI (interbeat interval) [1, 11]: increasing and ↑
BR (beat rate) [1, 11]: decreased and ↓
IBI ([3]; acute): prolonged
beat frequency ([3]; acute): reduced
conduction velocity ([3]; acute): decreased
field potential (spike) amplitude ([3]; acute): decreased
propagation area ([3]; acute): decreased
position on the PCA plot relative to mechanism-of-action groups ([2]; 10 μM): plotted near compounds acting on hERG channels
Cmax Free ([4]; ref Blinova et al. 2018): 3 ([Blinova et al. 2018]) μM
MEA assay ([7]; FPD, ref Harris et al. 2013): 0.3 ([Harris et al. 2013]) (FPD) µM
Impedance assay ([8]; ref Guo et al. 2013): 10 ([Guo et al. 2013]) (BR20) µM

SMILES: COc1ccc(CCN(C)CCCC(C#N)(c2ccc(OC)c(OC)c2)C(C)C)cc1OC (stereo not drawn) [Verapamil]
Amp. CV [1, 11]: ↓
Amp. STV [1, 11]: ↓
Dist Origin [1, 11]: reduced and ↓
Dist Origin STV [1, 11]: ↓
IBI (interbeat interval) [1, 11]: reduced and ↓
No. of Origin [1, 11]: ↓
BR (beat rate) [1, 11]: increased and ↑
FPI (concentration at which changes were detected) [1]: 0.003 (IBI, Amp. STV, Dist Origins, Dist Origins STV) μM
IBI ([3]; acute): shortened
beat frequency ([3]; acute): increased
field potential (spike) amplitude ([3]; acute): decreasing trend

The next lines start with results.

significant changes in any of the measured parameters (17 beat parameters) ([1]; acute): did not induce significant changes
SMILES: CC1(C)S[C@@H]2[C@H](NC(=O)[C@H](N)c3ccc(O)cc3)C(=O)N2[C@H]1C(=O)O [Amoxicillin]
position in PCA space [2]: remained near the origin

significant changes in any of the measured parameters (17 beat parameters) ([1]; acute): did not induce significant changes
SMILES: CC(=O)Oc1ccccc1C(=O)O [Aspirin]
position in PCA space [2]: remained near the origin

IBI (interbeat interval) [1, 11]: reduced and ↓
BR (beat rate) [1, 11]: increased and ↑
IBI ([3]; acute): shortened
beat frequency ([3]; acute): increased
field potential (spike) amplitude ([3]; acute): significant reduction
SMILES: COc1ccc([C@@H]2Sc3ccccc3N(CCN(C)C)C(=O)[C@@H]2OC(C)=O)cc1 [Diltiazem]

Amp. (amplitude) [1, 11]: ↓
Area (propagation area) [1, 11]: ↓
IBI (interbeat interval) [1, 11]: prolonged and ↑
BR (beat rate) [1, 11]: ↓
FPI (concentration at which changes were detected) [1]: 1 (BR) μM
SMILES: CC(C)N(CCC(C(N)=O)(c1ccccc1)c1ccccn1)C(C)C (stereo not drawn) [Disopyramide]
Veloc. (conduction velocity) [1, 11]: ↓
FPI PCA (concentration at which changes were detected) [2]: 1 µM
Cmax Free ([4]; ref Liu et al. 2021): 0.7 ([Liu et al. 2021]) μM
IC50 ([5]; ref Kramer et al. 2013): 168 µM
IC50 ([6]; ref Kramer et al. 2013): 1040 µM
MEA assay ([7]; FPDc10 (10% prolongation of FPDc), ref Ando et al. 2017): 0.74 ([Ando et al. 2017]) (FPDc10) µM
HCA assay [9]: 10 ([Lu et al. 2019]) (CTD90 ↑) µM

average number of excitation origins per beat ([1]; 10 nM, n = 6 wells): 1.51 ± 0.02
total number of active electrodes ([1]; 30 nM, Before: 149,149.4 ± 3,090.5): 149,185.2 ± 2,882.6
beating frequency ([1]; 30 nM, before 35.5 bpm): 57.0 bpm
average number of excitation origins per beat ([1]; 30 nM, n = 6 wells): 1.61 ± 0.02
Area STV [1, 11]: decreased and ↓
IBI (interbeat interval) [1, 11]: ↓
BR (beat rate) [1, 11]: increased and ↑
FPI (concentration at which changes were detected) [1]: 0.01 (BR, IBI) μM
SMILES: CC(C)NCC(O)c1ccc(O)c(O)c1 (stereo not drawn) [Isoproterenol]
FPI PCA (concentration at which changes were detected) [2]: 0.01 µM
Impedance assay ([8]; ref Doherty et al. 2015): 0.01 ([Doherty et al. 2015]) (BR20) µM
